Assay results as given in patent US20040033213A1, “Methods of modulating dendritic cells using adjuvants” (Corixa Corporation, priority 2002, published 2004).

How the values were obtained:
[1] = test system: murine bone marrow derived DCs + D011.10 T cells; assay: APC function of ova-pulsed, lipid A potentiated murine DCs co-cultured with D011.10 T cells (cytokine ELISA); format: cell-based; details: for IFN-γ release by D011.10 T cells (in words): DCs precultured 38 hours, FIG. 3; for IL-2 secretion (in words): all T cell:APC ratios, FIG. 1; for IL-12 (p70) in DC+D011.10 co-cultures (in words): FIG. 5; for release of IL-12 (p40) homodimer in DC+D011.10 co-cultures (in words): FIG. 7
Text: These antigen pulsed, lipid A potentiated cells were then washed thoroughly and titered against ova-specific T cell effector cells in vitro at an APC: T cell ratio titration of 1:1 out to as high as 1:512. The effector T cells in this in vitro assay were the antigen naive, but antigen (ova) specific, MHC restricted I-A^d splenic T cells from transgenic D011.10 mice.
D011.10 TCR-transgenic mice were used in these experiments as donors of antigen specific naive T cells. In their germline DNA these mice contain rearranged TCR-Vα and -Vβ genes that encode a T cell receptor (TCR) specific for the ovalbumin peptide 323-339 bound to IA^d (Balb/c) Class II MHC molecules. The transgenic ova peptide specific TCR can be detected with the KJ1-26 monoclonal antibody (mAb) that binds only to this particular TCR heterodimer. These cells provide a ready source of “normal” antigen (ova)-specific effector T cells. Effective antigen-mediated APC stimulation of those T cells is generally measured by ELISA quantitation of IL-2 or IFN-γ in the culture supernatants of DC+D011.10 T cells after 24-48 hours of incubation.
In one experiment, murine bone marrow derived DCs (6 day cultures) were pulsed with ova (50 μg/ml-5×10^5 cells/ml) and then potentiated overnight with LPS(R595), MPL® immunostimulant-S, RC-527, RC-529 or RC-544 prior to being cultured together with naive D011.10 effector T cells (FIGS. 1-7). The APC function of these DCs as measured by their ability to stimulate IL-2, IFN-γ IL-12 (p70) and IL-12 (p40) secretion in the DC+D011.10 co-culture systems was analyzed. All of the data shown in FIGS. 1-7 was developed from DCs maintained in lipid A induction cultures for either 15 or 38 hours prior to use in the T cell assay.

[2] = test system: KJ1 positive D011.10 CD4 T cells; assay: OVA pulsed DC transfer into D011.10 loaded Balb/c mice; format: in vivo; details: for Total KJ1 Positive Cells/Spleen: others 100 ng/ml
Protocol: In a second experiment 6-7 day bone marrow derived (Balb/c) DCs were pulsed with antigen and subsequently stimulated overnight with LPS, MPL® immunostimulant-S, and RC-527 (Table 6). 5×10^6 D011.10 CD4 (KJ1-positive) T cells were transferred into Balb/c mice, and 24 hours later ova-pulsed cultured, DCs from the control group (pulsed with ova only) and the indicated test DCs potentiated with LPS, MPL® immunostimulant-S or RC-527 were also injected intravenously. […] The transferred DCs stimulated with ova only, ova+LPS and ova+MPL® immunostimulant-S produced a similar effect in inducing the amplification of D011.10 T lymphocyte numbers above the value observed when untreated DCs (i.e., no ova and no lipid A) were used as the putative APC source and transfected into Balb/c mice preinjected with KJ1 CD4 cells.
5×10^6 KJ1 positive D011.10 spleen cells were injected into Balb/c mice (I.V.) on day zero minus 1; 24 hrs later 5×10^6 DC's from the indicated in vitro induction test groups were injected I.V. and the spleens from test animals were harvested 3 and 5 days later for total KJ1 enumeration.

[3] = test system: cryogenically stored 10 day murine DCs + D011.10 effector T cells; assay: Cryogenically preserved 10 day murine DCs in the D011.10 T cell assay (IFN-γ ELISA); format: cell-based
Protocol: In order to determine if 10 day GM-CSF precultured DCs could be recovered from cryogenic storage and still retain their functional potential, studies were carried out to determine the functional integrity of LPS- and RC-527-stimulated, cryogenically preserved, 10 day DCs in the D011.10 T cell assay system. Specifically, 10 day GM-CSF-precultured DCs were stored in liquid nitrogen for several weeks. The cells were subsequently thawed and maintained for 24 hours in tissue culture in the presence of GM-CSF. After 24 hours in this “resting” culture, DCs were pulsed with ova for four hours and potentiated with LPS for 24 hours prior to placing them against D011.10 effector T cells at 4:1 and 8:1 ratios.
D011.10 effector T cell cultures were maintained for 24 hours and 48 hours, and culture supernatants were collected at both time points. These supernatants were tested for IFN-γ using a commercial ELISA system. The IFNγ response induced either by antigen-pulsed, lipid A stimulated DCs after 24 hours incubation with D011.10 T cells (FIG. 13a) or by LPS and RC-527 stimulated, cryogenically stored, cultured DCs after 48 hours of incubation with D011.10 effector T cells (FIG. 13b) was measured.

[4] = test system: cultured human dendritic cells (DC); assay: Flow cytometry of cell surface activation markers on human DCs restimulated 72 hours with AGPs (titration); format: cell-based; details: titration 0.1-2 μg/ml, FIG. 18

SMILES | IFN-γ release by D011.10 T cells (in words) [1] | IL-2 secretion (in words) ([1]; DCs prestimulated 15 hours) | IL-12 (p70) in DC+D011.10 co-cultures (in words) [1] | release of IL-12 (p40) homodimer in DC+D011.10 co-cultures (in words) [1] | IFN-γ secretion by D011.10 cells (in words) ([1]; DCs prestimulated 15 hours, FIG. 2) | IFN-γ secretion at T cell:APC ratio 32:1 (in words) ([1]; FIG. 4) | Total KJ1 Positive Cells/Spleen ([2]; Day 3 after I.V. transfer of 5×10^6 OVA pulsed DCs stimulated in vitro, LPS 10 ng/ml) | Total KJ1 Positive Cells/Spleen ([2]; Day 5 after I.V. transfer of 5×10^6 OVA pulsed DCs stimulated in vitro, LPS 10 ng/ml) | splenic KJ1+ CD4 T cell numbers (in words) ([2]; day 3 and day 5 after transfer of stimulated DCs) | KJ1+ CD4 response, % of all splenic CD4 cells ([2]; second, similar DC transfer experiment, at 5 days, LPS 10 ng/ml, MPL-S 100 ng/ml) [%] | IFN-γ response of cryogenically stored DCs after antigen pulsing and activation (in words) ([3]; compared with unfrozen 10 day DCs) | IFN-γ response, 48 hours versus 24 hours of incubation (in words) ([3]; cryogenically stored DCs, FIG. 13) | CD86 expression, mean channel fluorescence (in words) [4]
CCCCCCCCCCCCCC(=O)O[C@H](CCCCCCCCCCC)CC(=O)NCCO[C@@H]1O[C@H](CO)[C@@H](OP(=O)(O)O)[C@H](OC(=O)C[C@@H](CCCCCCCCCCC)OC(=O)CCCCCCCCCCCCC)[C@H]1NC(=O)C[C@@H](CCCCCCCCCCC)OC(=O)CCCCCCCCCCCCC.CCN(CC)CC [RC-529, 2-[(R)-3-Tetradecanoyloxytetradecanoylamino]ethyl 2-Deoxy-4-O-phosphono-3-O-[(R)-3-tetradecanoyoxytetradecanoyl]-2-[(R)-3-tetradecanoyoxytetradecanoylamino]-β-D-glucopyranoside triethylammonium salt] | very comparable to each other | comparable in their ability to stimulate IL-2 secretion | weakest ability | moderately less potent than either RC-544 or MPL® immunostimulant-S | – | – | – | – | – | – | – | – | –
CCCCCCCCCCCC(CC(=O)NC(COC1OC(CO)C(OP(=O)(O)O)C(OC(=O)CC(CCCCCCCCCCC)OC(=O)CCCCCCCCC)C1NC(=O)CC(CCCCCCCCCCC)OC(=O)CCCCCCCCC)C(=O)O)OC(=O)CCCCCCCCC (centres unmarked) [RC-527] | generally more potent | comparable in their ability to stimulate IL-2 secretion | most potent | most potent effect | high levels of IFN-γ release | comparable to that observed with LPS | 4.1 × 10^6 Cells/Spleen | 3.0 × 10^6 Cells/Spleen | higher levels of splenic KJ1^+ CD4 T cell numbers than any of the other test groups at both time points | 3.9 | fully capable of supporting an IFNγ response | significantly stronger IFN-γ response after 48 hours | highest stimulation of CD86 expression over most of the titration range
